Laboratory results published in patent US6770597B2, “Benzohydrazide derivatives as herbicides and desiccant compositions containing them” (Ishihara Sangyo Kaisha, Ltd., priority 2002, dated 2004).

Columns and labels:
Assay type in all cases: in vivo
[1] = system: cocklebur (Xanthium strumarium, XANST); assay: Greenhouse herbicide screen, pre-emerge application, phytotoxicity rating; settings: PRE emergent, 14 days after application, rating scale 0-100
From the text: (§1) A standard greenhouse herbicide activity screening system was used to evaluate the herbicidal efficacy and crop safety of these test compounds. Seven broadleaf weed species including redroot pigweed (Amaranthus retrofiexus, AMARE), velvetleaf (Abutilon theophrasti, ABUTH), sicklepod (Cassia obtusifolia, CASOB), ivyleaf morningglory (Ipomoea hederacea, IPOHE), lambsquarters (Chenopodium album, CHEAL), common ragweed (Ambrosia artemisiifolia L., AMBEL), and cocklebur (Xanthium strumarium, XANST) were used as test species. Four grass weed species including green foxtail (Setaria viridis, SETVI), barnyardgrass (Echinochloa crus-galli, ECHCG), johnsongrass (Sorghum halepense, SORHA), and large crabgrass (Digitaria sanguinalis, DIGSA) were also used. In addition, four crop species, field corn (Zea mays L., var. Dekalb 535, CORN), soybean (Glycine max L., var. Pella 86, SOY), upland rice (Oryza sp., var.Cocodrie, RICE) and wheat (Triticum aestivum L.) were included.
(§2) All plants were grown in 10 cm square plastic pots which were filled with a sandy loam soil mix. For pre-emerge tests, seeds were planted one day prior to application of the test compounds. For post-emerge tests, seeds were planted 8-21 days prior to the test to allow emergence and good foliage development prior to application of the test substances. At the time of the post-emerge application, plants of all species were usually at the 2-3 leaf stage of development.
(§3) All test compounds were dissolved in acetone and applied to the test units in a volume of 187 l/ha. Test materials were applied at rates ranging from 15 g ai/ha to 1000 g ai/ha using a track sprayer equipped with a TJ8001E even flow flat fan spray nozzle. Plants were arranged on a shelf so that the top of the canopy (post-emerge) or top of the soil surface (pre-emerge) was 40-45 cm below the nozzle. Pressurized air was used to force the test solution through the nozzle as it was mechanically advanced (via electrically driven chain drive) over the top of all test plants/pots. This application simulates a typical commercial field herbicide application.
(§4) Pre-emergence tests were top watered immediately after treatment to incorporate the test materials, then routinely top-watered for normal growth. Post-emerge test units were always bottom-watered.
(§5) At 14 days after application of the test materials, phytotoxicity ratings were recorded. A rating scale of 0-100 was used as previously described in Research Methods in Weed Science, 2nd edition, B. Truelove, Ed., Southern Weed Science Society, Auburn University, Auburn, Ala., 1977. Briefly, “0” corresponds to no damage and “100” corresponds to complete death of all plants in the test unit. This scale was used both to determine efficacy against weed species and damage to crop species. Herbicide activity data for various compounds of this invention, which are shown by compound No. in Tables 1-12, are shown in Tables 13 and 14.

[2] = system: green foxtail (Setaria viridis, SETVI); assay: as above; settings: PRE emergent, 14 days after application, rating scale 0-100
From the text: as §1, §2, §3, §4, §5

[3] = system: redroot pigweed (Amaranthus retrofiexus, AMARE); assay: as above; settings: PRE emergent, 14 days after application, rating scale 0-100
From the text: as §1, §2, §3, §4, §5

[4] = system: common ragweed (Ambrosia artemisiifolia L., AMBEL); assay: as above; settings: PRE emergent, 14 days after application, rating scale 0-100
From the text: as §1, §2, §3, §4, §5

[5] = system: velvetleaf (Abutilon theophrasti, ABUTH); assay: as above; settings: PRE emergent, 14 days after application, rating scale 0-100
From the text: as §1, §2, §3, §4, §5

[6] = system: johnsongrass (Sorghum halepense, SORHA); assay: as above; settings: PRE emergent, 14 days after application, rating scale 0-100
From the text: as §1, §2, §3, §4, §5

[7] = system: ivyleaf morningglory (Ipomoea hederacea, IPOHE); assay: as above; settings: PRE emergent, 14 days after application, rating scale 0-100
From the text: as §1, §2, §3, §4, §5

[8] = system: large crabgrass (Digitaria sanguinalis, DIGSA); assay: as above; settings: PRE emergent, 14 days after application, rating scale 0-100
From the text: as §1, §2, §3, §4, §5

[9] = system: barnyardgrass (Echinochloa crus-galli, ECHCG); assay: as above; settings: PRE emergent, 14 days after application, rating scale 0-100
From the text: as §1, §2, §3, §4, §5

[10] = system: lambsquarters (Chenopodium album, CHEAL); assay: as above; settings: PRE emergent, 14 days after application, rating scale 0-100
From the text: as §1, §2, §3, §4, §5

[11] = system: sicklepod (Cassia obtusifolia, CASOB); assay: as above; settings: PRE emergent, 14 days after application, rating scale 0-100
From the text: as §1, §2, §3, §4, §5

[12] = system: cocklebur (Xanthium strumarium, XANST); assay: Greenhouse herbicide screen, post-emerge application, phytotoxicity rating; settings: POST emergent, 14 days after application, scale 0-100
From the text: as §1, §2, §3, §4, §5

[13] = system: green foxtail (Setaria viridis, SETVI); assay: as above; settings: POST emergent, 14 days after application, scale 0-100
From the text: as §1, §2, §3, §4, §5

[14] = system: redroot pigweed (Amaranthus retrofiexus, AMARE); assay: as above; settings: POST emergent, 14 days after application
From the text: as §1, §2, §3, §4, §5

[15] = system: common ragweed (Ambrosia artemisiifolia L., AMBEL); assay: as above; settings: POST emergent, 14 days after application, scale 0-100
From the text: as §1, §2, §3, §4, §5

[16] = system: velvetleaf (Abutilon theophrasti, ABUTH); assay: as above; settings: POST emergent, 14 days after application, scale 0-100
From the text: as §1, §2, §3, §4, §5

[17] = system: johnsongrass (Sorghum halepense, SORHA); assay: as above; settings: POST emergent, 14 days after application, scale 0-100
From the text: as §1, §2, §3, §4, §5

[18] = system: ivyleaf morningglory (Ipomoea hederacea, IPOHE); assay: as above; settings: POST emergent, 14 days after application, scale 0-100
From the text: as §1, §2, §3, §4, §5

[19] = system: large crabgrass (Digitaria sanguinalis, DIGSA); assay: as above; settings: POST emergent, 14 days after application, scale 0-100
From the text: as §1, §2, §3, §4, §5

[20] = system: barnyardgrass (Echinochloa crus-galli, ECHCG); assay: as above; settings: POST emergent, 14 days after application, scale 0-100
From the text: as §1, §2, §3, §4, §5

[21] = system: lambsquarters (Chenopodium album, CHEAL); assay: as above; settings: POST emergent, 14 days after application, scale 0-100
From the text: as §1, §2, §3, §4, §5

[22] = system: sicklepod (Cassia obtusifolia, CASOB); assay: as above; settings: POST emergent, 14 days after application, scale 0-100
From the text: as §1, §2, §3, §4, §5

[23] = system: field corn (Zea mays L., var. Dekalb 535, CORN); assay: Greenhouse herbicide screen, pre-emerge application, crop damage rating; settings: PRE emergent, 14 days after application, rating scale 0-100
From the text: as §1, §2, §3, §4, §5

[24] = system: upland rice (Oryza sp., var.Cocodrie, RICE); assay: as above; settings: PRE emergent, 14 days after application, rating scale 0-100
From the text: as §1, §2, §3, §4, §5

[25] = system: field corn (Zea mays L., var. Dekalb 535, CORN); assay: Greenhouse herbicide screen, post-emerge application, crop damage rating; settings: POST emergent, 14 days after application, scale 0-100
From the text: as §1, §2, §3, §4, §5

[26] = system: upland rice (Oryza sp., var.Cocodrie, RICE); assay: as above; settings: POST emergent, 14 days after application, scale 0-100
From the text: as §1, §2, §3, §4, §5

Structure (SMILES): CCOC(=O)NNC(=O)c1cc(-n2c(=O)cc(C(F)(F)F)n(C)c2=O)c(F)cc1Cl [Compound 1-23]
- phytotoxicity rating XANST ([1]; 63 g ai/ha): 100
- phytotoxicity rating XANST ([1]; 250 g ai/ha): 100
- phytotoxicity rating SETVI ([2]; 63 g ai/ha): 55
- phytotoxicity rating SETVI ([2]; 250 g ai/ha): 99
- phytotoxicity rating AMARE ([3]; 63 g ai/ha): 100
- phytotoxicity rating AMARE ([3]; 250 g ai/ha): 100
- phytotoxicity rating AMBEL ([4]; 63 g ai/ha): 85
- phytotoxicity rating AMBEL ([4]; 250 g ai/ha): 100
- phytotoxicity rating ABUTH ([5]; 63 g ai/ha): 100
- phytotoxicity rating ABUTH ([5]; 250 g ai/ha): 100
- phytotoxicity rating SORHA ([6]; 63 g ai/ha): 70
- phytotoxicity rating SORHA ([6]; 250 g ai/ha): 99
- phytotoxicity rating IPOHE ([7]; 63 g ai/ha): 98
- phytotoxicity rating IPOHE ([7]; 250 g ai/ha): 100
- phytotoxicity rating DIGSA ([8]; 63 g ai/ha): 75
- phytotoxicity rating DIGSA ([8]; 250 g ai/ha): 75
- phytotoxicity rating ECHCG ([9]; 63 g ai/ha): 50
- phytotoxicity rating ECHCG ([9]; 250 g ai/ha): 75
- phytotoxicity rating CHEAL ([10]; 63 g ai/ha): 100
- phytotoxicity rating CHEAL ([10]; 250 g ai/ha): 100
- phytotoxicity rating CASOB ([11]; 63 g ai/ha): 98
- phytotoxicity rating CASOB ([11]; 250 g ai/ha): 98
- phytotoxicity rating XANST ([12]; 63 g ai/ha): 100
- phytotoxicity rating XANST ([12]; 250 g ai/ha): 100
- phytotoxicity rating SETVI ([13]; 63 g ai/ha): 55
- phytotoxicity rating SETVI ([13]; 250 g ai/ha): 99
- phytotoxicity rating AMARE ([14]; 63 g ai/ha, scale 0-100 (0 no damage, 100 complete death)): 100
- phytotoxicity rating AMARE ([14]; 250 g ai/ha, scale 0-100): 100
- phytotoxicity rating AMBEL ([15]; 63 g ai/ha): 85
- phytotoxicity rating AMBEL ([15]; 250 g ai/ha): 100
- phytotoxicity rating ABUTH ([16]; 63 g ai/ha): 100
- phytotoxicity rating ABUTH ([16]; 250 g ai/ha): 100
- phytotoxicity rating SORHA ([17]; 63 g ai/ha): 70
- phytotoxicity rating SORHA ([17]; 250 g ai/ha): 99
- phytotoxicity rating IPOHE ([18]; 63 g ai/ha): 98
- phytotoxicity rating IPOHE ([18]; 250 g ai/ha): 100
- phytotoxicity rating DIGSA ([19]; 63 g ai/ha): 75
- phytotoxicity rating DIGSA ([19]; 250 g ai/ha): 75
- phytotoxicity rating ECHCO ([20]; 63 g ai/ha): 50
- phytotoxicity rating ECHCO ([20]; 250 g ai/ha): 75
- phytotoxicity rating CHEAL ([21]; 63 g ai/ha): 100
- phytotoxicity rating CHEAL ([21]; 250 g ai/ha): 100
- phytotoxicity rating CASOB ([22]; 63 g ai/ha): 98
- phytotoxicity rating CASOB ([22]; 250 g ai/ha): 98
- crop damage rating CORN ([23]; 63 g ai/ha): 80
- crop damage rating CORN ([23]; 250 g ai/ha): 100
- crop damage rating RICE ([24]; 63 g ai/ha): 45
- crop damage rating RICE ([24]; 250 g ai/ha): 85
- crop damage rating CORN ([25]; 63 g ai/ha): 80
- crop damage rating CORN ([25]; 250 g ai/ha): 100
- crop damage rating RICE ([26]; 63 g ai/ha): 45
- crop damage rating RICE ([26]; 250 g ai/ha): 85
